Literature values in patent US20250195565A1 (Fempharma Europe, LLC, priority 2018, published 2025).

System: human vaginal smooth muscle cells
Settings: zinc at a tissue level of 20 μM

**Q.** With `[Zn]` [zinc] as the molecule, how does the “effect on production of extracellular components (collagen, elastin) by the muscle cells” value read?
**A.** beneficial effect
